One compound from article PMC10018692 (ACS Omega, 2023) can be followed below.

Data set [1] in a line: Drug solubility of free PTL and PTL-loaded nanoparticles. It is filed as physicochemical. The conditions noted are these: phosphate buffer, pH 7.4.
The nature of data set [2]: Pharmacokinetic study in albino rats. The class given is in vivo. The conditions noted are these: 10 mg/kg.

≈ marks a conversion by molar mass, not a printed value.

In data set [1], `CC(=O)O[C@H]1C(=O)[C@@]2(C)[C@H]([C@H](OC(=O)c3ccccc3)[C@]3(O)C[C@H](OC(=O)[C@H](O)[C@@H](NC(=O)c4ccccc4)c4ccccc4)C(C)=C1C3(C)C)[C@]1(OC(C)=O)CO[C@@H]1C[C@@H]2O` [PTL, Paclitaxel] displayed a solubility at 24 h of roughly 4.5 µg/mL (≈ 5.27 µM). Further, in data set [2] (rat, plasma, po), the total exposure AUC(0-inf) worked out at 2980 ± 53.1 ng·h/mL, the AUC(0-t) came out at 2830 ± 56.8 ng·h/mL, the Cmax is 239 ± 26.2 ng/mL and the Tmax stood at 2 ± 0.05 h. In addition, in data set [2] (rat, plasma, po), the half-life was 8.76 ± 1.1 h. In data set [2] (rats), this compound yielded a Kel of 0.072 ± 0.001. The “plasma PTL concentration after 12 h” value in data set [2] (rats, HPLC) is reported as “below the HPLC quantification limit”.
